How the values were obtained:
Rattus norvegicus [1] = assay: Inhibition of ADP-induced platelet aggregation in Wistar rat blood at 10 mg/kg, po after 2 hrs by aggregometer analysis relative to vehicle-treated control
Rattus norvegicus [2] = assay: Inhibition of ADP-induced platelet aggregation in Wistar rat blood at 10 mg/kg, po after 5 mins by aggregometer analysis relative to vehicle-treated control

Structure (SMILES) | aggregation at 10 mg/kg (Rattus norvegicus [1]) | aggregation at 10 mg/kg (Rattus norvegicus [2])
COC(=O)C(c1ccccc1Cl)N1CCc2sccc2C1 (stereo not drawn) | 60.4% | 29.4%
[3H]C1([3H])c2ccsc2C([3H])([3H])C([3H])([3H])N1C(C(=O)OC)c1ccccc1Cl (stereo not drawn) | 50.6% | 7%
[3H]C1([3H])c2sccc2CN(C(C(=O)OC)c2ccccc2Cl)C1([3H])[3H] (stereo not drawn) | 49.1% | 7.3%
[3H]C1([3H])c2ccsc2CCN1C(C(=O)OC)c1ccccc1Cl (stereo not drawn) | 50.4% | 12.9%
